Assay results taken from patent publication US5814631A, “Quinazoline derivatives and applications thereof” (Suntory Limited, priority 1995, dated 1998).
Read-outs that look alike come from different tables or passages of the source.

Legend:
[1] = target: T1, human neutrophil derived cathepsin G (Homo sapiens, UniProt P08311); test: Measurement of cathepsin G inhibitive activity (conversion of Ang I to Ang II, HPLC); format: biochemical; details: Ang I substrate, 37° C., 30 min, pH 7.5
T1 sequence (P08311 21-244 limits assumed): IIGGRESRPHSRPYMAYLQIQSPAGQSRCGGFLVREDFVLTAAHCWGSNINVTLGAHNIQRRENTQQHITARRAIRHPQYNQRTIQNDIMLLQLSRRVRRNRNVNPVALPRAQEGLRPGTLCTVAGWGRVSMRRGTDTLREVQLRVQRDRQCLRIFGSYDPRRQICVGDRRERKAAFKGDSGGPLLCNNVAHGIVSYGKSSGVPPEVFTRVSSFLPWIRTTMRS

[2] = target: T2, human heart chymase (Homo sapiens, UniProt P23946); test: biochemical; details: Chymase inhibitive activity (IC50), Ang I substrate, 37° C., 30 min, pH 7.5
T2 sequence (P23946 22-247): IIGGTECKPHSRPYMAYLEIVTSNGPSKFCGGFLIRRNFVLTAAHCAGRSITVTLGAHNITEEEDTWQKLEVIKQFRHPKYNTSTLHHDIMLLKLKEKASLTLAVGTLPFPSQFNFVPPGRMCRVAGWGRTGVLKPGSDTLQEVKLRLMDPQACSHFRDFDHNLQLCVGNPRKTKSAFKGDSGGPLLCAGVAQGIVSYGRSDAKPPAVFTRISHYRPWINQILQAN
Protocol: (§1) That is, to 10 μl of a 20 mM trisphosphate buffer (pH 7.5) containing 2MKCl were added 10 μl of purified chymase and 5 μl of a dimethylsulfoxide (hereinafter referred to as DMSO) solution of the test sample. The mixture was preincubated at 37° C. for 10 minutes, then 25 μl of a 1 mM Ang I solution was added and the mixture preincubated at 37° C. for 30 minutes. Next, 50 μl of 30% acetic acid was added to stop the enzymatic reaction. At the same time, a blind test was performed by adding, instead of the test sample solution, 5 μl of DMSO and performing the same reaction.
(§2) The reacted solution was subjected to high performance liquid chromatography using Develosil ODS-5 (made by Nomura Kagaku, .phi.4.6 mm×150 mm) and developed at a flow rate of 2.0 ml/min in 0.05% TFA by a straight concentration gradient raising the acetonitrile from 0% to 60% over 10 minutes. This was monitored by the absorbance at 210 nm and the peaks identified by comparison with standard samples of Ang I and Ang II. The peak areas were measured by an integrating meter to quantitatively analyze the Ang I and Ang II and calculate the chymase activity.

[3] = target: T3, bovine pancreatic α-chymotrypsin (Bos taurus, UniProt P00766); test: Measurement of chymotrypsin inhibitive activity (Ang I, HPLC); format: biochemical; details: for IC50: bovine pancreatic α-chymotrypsin, Ang I substrate, 37° C., 15 min, pH 7.5; for inhibition at 100 µM: percent inhibition at 100 μM
T3 construct: purchased Sigma Co. Type II; host or cells: bovine pancreas

[4] = target: T2, human heart chymase; details: read-out: Chymase inhibitive activity (IC50), Ang I substrate, 37° C., 30 min, pH 7.5
Protocol: as §1, §2

[5] = test system: vascular restenosis after the operation of PTCA; details: random multifacility clinical study, Europe, placebo control; cited from earlier work
[6] = test system: chymase; details: canine, simian, and human arterial tissue; cited from earlier work
[7] = in vivo; details: mouse, po

Compound | IC50 [1] | IC50 [2] | IC50 [3] | other results
O=C(O)c1ccc(S(=O)(=O)n2c(=O)[nH]c3cc(Cl)ccc3c2=O)cc1 | 0.58 µM | 3.1 µM | 25 µM | –
COc1cccc2c(=O)n(S(=O)(=O)c3ccc(Cl)cc3)c(=O)[nH]c12 [Example 7, 3-(4-chlorobenzenesulfonyl)-8-methoxy-2,4(1H,3H)-quinazolinedione] | 3.2 µM | 23 µM | 1.9 µM | –
3(4-chlorobenzenesulfonyl)-1-phenethyl-2,4(1H,3H)-quinazolinedione [Example 129] | – | – | – | IC50 [4]: 3.2 µM
CC(C)(C)OC(=O)Cn1c(=O)n(S(=O)(=O)c2ccc(Cl)cc2)c(=O)c2ccc(Cl)cc21 [Example 25, 1-t-butoxycarbonylmethyl-7-chloro-3-(4-chlorobenzenesulfonyl)-2,4(1H,3H)-quinazolinedione] | 37 µM | 6.3 µM | – | inhibition at 100 µM [3]: 34.5%
COC(=O)c1ccc(S(=O)(=O)n2c(=O)[nH]c3cc(Cl)ccc3c2=O)cc1 [Example 19, 7-chloro-3-(4-methoxycarbonylbenzenesulfonyl)-2,4(1H,3H)-quinazolinedione] | 0.16 µM | 0.2 µM | 0.4 µM | –
O=c1[nH]c2ccccc2c(=O)n1S(=O)(=O)c1ccc(Cl)cc1 [Example 23, 3-(4-chlorobenzenesulfonyl)-2,4(1H,3H)-quinazolinedione] | 3.8 µM | 1.6 µM | 12 µM | –
Cc1cc2[nH]c(=O)n(S(=O)(=O)c3ccc(Cl)cc3)c(=O)c2cc1C [Example 21, 3-(4-chlorobenzenesulfonyl)-6,7-dimethyl-2,4(1H,3H)-quinazolinedione] | 37 µM | 30 µM | 8.5 µM | –
Cc1ccc(S(=O)(=O)n2c(=O)[nH]c3cc(Cl)ccc3c2=O)cc1 [Example 37, 7-chloro-3-(4-toluenesulfonyl)-2,4(1H,3H)-quinazolinedione] | 1.2 µM | 1.3 µM | 6.1 µM | –
CCOC(=O)[C@H](CCc1ccccc1)N[C@H]1CCCN2CCC[C@@H](C(=O)O)N2C1=O [cilazapril] | – | – | – | prophylactic effect on vascular restenosis after PTCA versus placebo [5]: no statistically significant difference
CC(C)C[C@H](NC(=O)[C@@H](NC(=O)N[C@@H](Cc1ccccc1)C(=O)O)[C@@H]1CCN=C(N)N1)C(=O)N[C@H](C=O)Cc1ccccc1 [chymostatin] | – | – | – | inhibition of the enzymatic activity of chymase, in words [6]: inhibited
O=c1[nH]c2cc3ccccc3cc2c(=O)n1S(=O)(=O)c1ccc(Cl)cc1 [Example 35, 3-(4chlorobenzenesulfonyl)-2,4(1H,3H)-benzo[g]quinazolinedione] | – | 2.4 µM | 1.4 µM | –
O=C(O)c1cccc(S(=O)(=O)n2c(=O)[nH]c3cc(Cl)ccc3c2=O)c1 [Example 15, 3-(3-carboxybenzenesulfonyl)-7-chloro-2,4(1H,3H)-quinazolinedione] | 0.79 µM | 2.4 µM | 4.8 µM | –
O=C(Cn1c(=O)n(S(=O)(=O)c2ccc(Cl)cc2)c(=O)c2ccc(Cl)cc21)Nc1cc[nH]c(=O)n1 [Example 88, [7-chloro-3-(4-chlorobenzenesulfonyl)-2,4(1H,3H)-quinazolinedion-1-yl]-N-cytosinacetamide] | – | – | – | IC50 [4]: 0.2 µM
Nc1ncc(NC(=O)Cn2c(=O)n(S(=O)(=O)c3ccc(Cl)cc3)c(=O)c3ccc(Cl)cc32)cn1 [Example 87, [7-chloro-3-(4-chlorobenzenesulfonyl)-2,4(1H,3H)-quinazolinedion-1-yl]-N-(4-(2-aminopyrimidinyl))acetamide] | – | – | – | IC50 [4]: 0.13 µM
Cc1cccc2[nH]c(=O)n(S(=O)(=O)c3ccc(Cl)cc3)c(=O)c12 [Example 2, 3-(4-chlorobenzenesulfonyl)-5-methyl-2,4(1H,3H)-quinazolinedione] | – | – | – | LD50 at 24 h [7]: ≥ 1000 mg/kg; selectivity ratio at 24 h [7]: ≥ 50
O=c1[nH]c2cc(Cl)ccc2c(=O)n1S(=O)(=O)c1ccc(Cl)cc1 [Example 1, 7-chloro-3-(-4-chlorobenzenesulfonyl)-2,4(1H,3H)-quinazolinedione] | 0.52 µM | – | 1.5 µM | LD50 at 24 h [7]: ≥ 1000 mg/kg
C=CCOC(=O)c1ccc(S(=O)(=O)n2c(=O)[nH]c3cc(Cl)ccc3c2=O)cc1 [Example 5, 3-(4-allyloxycarbonylbenzenesulfonyl)-7-chloro-2,4(1H,3H)-quinazolinedione] | 0.34 µM | – | 2 µM | –

The next lines start with results.

IC50 [1] | IC50 [2] | IC50 [3] | Compound | other results
0.48 µM | 1.6 µM | 2.5 µM | Cc1ccc(S(=O)(=O)n2c(=O)[nH]c3cc(Cl)ccc3c2=O)cc1C [Example 9, 7-chloro-3-(3,4-dimethylbenzenesulfonyl)-2,4(1H,3H)-quinazolinedione] | –
16 µM | 7 µM | – | Cn1c(=O)n(S(=O)(=O)c2ccc(Cl)cc2)c(=O)c2ccc(Cl)cc21 [Example 27, 7-chloro-3-(4-chlorobenzenesulfonyl)-1-methyl-2,4(1H,3H)-quinazolinedione] | inhibition at 100 µM [3]: 27%
0.034 µM | 0.85 µM | 0.24 µM | O=c1[nH]c2cc(Cl)ccc2c(=O)n1S(=O)(=O)c1ccc([N+](=O)[O-])cc1 [Example 13, 7-chloro-3-(4-nitrobenzenesulfonyl)-2,4(1H,3H)-quinazolinedione] | –
1.1 µM | 1.7 µM | 5.7 µM | O=c1[nH]c2cc(F)ccc2c(=O)n1S(=O)(=O)c1ccc(Cl)cc1 [Example 31, 3-(4-chlorobenzenesulfonyl)-7-fluoro-2,4(1H,3H)-quinazolinedione] | –
3.6 µM | 1.9 µM | 4.6 µM | O=c1[nH]c2ccc(F)cc2c(=O)n1S(=O)(=O)c1ccc(Cl)cc1 [Example 33, 3-(4-chlorobenzenesulfonyl)-6-fluoro-2,4(1H,3H)-quinazolinedione] | –
14 µM | 3.3 µM | – | O=C(O)Cn1c(=O)n(S(=O)(=O)c2ccc(Cl)cc2)c(=O)c2ccc(Cl)cc21 [Example 29, 1-carboxymethyl-7-chloro-3-(4-chlorobenzenesulfonyl)-2,4(1H,3H)-quinazolinedione] | inhibition at 100 µM [3]: 46.5%
0.25 µM | 0.73 µM | 3 µM | O=c1[nH]c2cc(Cl)ccc2c(=O)n1S(=O)(=O)c1ccccc1 [Example 11, 7-chloro-3-benzenesulfonyl-2,4 3(1H,3H)-quinazolinedione] | –
64.4 µM | 3.9 µM | 3.5 µM | Cc1ccc2[nH]c(=O)n(S(=O)(=O)c3ccc(Cl)cc3)c(=O)c2c1 [Example 3] | –
